{"source": "patent US8546357B2", "about": "“Boron-containing small molecules for controlling ectoparasites” (priority 2011, dated 2013)", "key": {"[1]": {"tested_on": "brown dog tick (Rhipicephalus sanguineus)", "assay": "Residual efficacy against adult brown dog tick infestations on dogs, oral", "type": "in vivo", "conditions": "Day 32", "protocol": "Immediately following removal of D. variabilis ticks on Day 30, dogs were co-infested with approximately 50 adult, unfed brown dog ticks (R. sanguineus, approximately 50% male and 50% female) and approximately 100 adult, unfed cat fleas (C. felis, approximately 50% male and 50% female). Ticks and fleas were counted and removed on Day 32 (approximately 48 hours after infestation). GM percent efficacy of treatments against both tick species and fleas was calculated using the following formula: […]\nThe therapeutic (knockdown) and residual efficacy of 7, administered orally at a point dose of 35 mg/kg bodyweight, was evaluated against adult tick (Dermacentor variabilis and Rhipicephalus sanguineus) and adult cat flea (Ctenocephalides felis) infestations on dogs. Twelve (12) male and female beagle dogs were allocated to either an untreated, negative control group or 7 group (n=6 dogs per group). Dogs were infested with approximately 50 unfed, adult D. variabilis ticks on Days −1, 5, 12, 19, 28, 35 and 42. On Day 0, dogs were orally administered gelatin capsules containing Compound 8194 (50% technical active, 47% microcrystalline cellulose and 3% croscarmellose sodium, w/w) at a point dose of 35 mg/kg. D. variabilis tick counts and classification were conducted on Day 1 (thumb count, approximately 24 hours after treatment) and Days 2, 7, 14, 21, 30, 37 and 44 (approximately 48 hours after treatment). Following removal of D. variabilis ticks on Day 30, all dogs were co-infested with approximately 50 unfed, adult brown dog ticks (R. sanguineus) and approximately 100 unfed, adult cat fleas (C. felis). Brown dog tick and cat flea counts were conducted on Day 32 (approximately 48 hours after infestation). GM percent efficacy of treatments against both tick species and fleas was calculated using the following formula: […]\nThe therapeutic (knockdown) and residual efficacy of S-enantiomer, 9, administered orally at a point dose of 25 mg/kg bodyweight, was evaluated against adult tick (Dermacentor variabilis and Rhipicephalus sanguineus) and adult cat flea (Ctenocephalides felis) infestations on dogs. Twelve (12) male and female beagle dogs were allocated to either an untreated, negative control group or 9 group (n=6 dogs per group). Dogs were infested with approximately 50 unfed, adult D. variabilis ticks on Days −1, 5, 12, 19, and 28. On Day 0, dogs were orally administered gelatin capsules containing 9 (50% technical active, 47% microcrystalline cellulose and 3% croscarmellose sodium, w/w) at a point dose of 25 mg/kg. D. variabilis tick counts and classification were conducted on Day 1 (thumb count, approximately 24 hours after treatment) and Days 2, 7, 14, 21 and 30 (approximately 48 hours after treatment). Following removal of D. variabilis ticks on Day 30, all dogs were co-infested with approximately 50 unfed, adult brown dog ticks (R. sanguineus) and approximately 100 unfed, adult cat fleas (C. felis). Brown dog tick and cat flea counts were conducted on Day 32 (approximately 48 hours after infestation). GM percent efficacy of treatments against both tick species and fleas was calculated using the following formula: […]"}, "[2]": {"tested_on": "cat flea (Ctenocephalides felis)", "assay": "Therapeutic efficacy and speed of kill against adult cat flea infestations on dogs, oral", "type": "in vivo", "conditions": "oral capsule 20 mg/kg", "protocol": "The therapeutic efficacy and speed of kill of 7, administered orally at a point dose of 20 mg/kg bodyweight, was evaluated against adult cat flea (Ctenocephalides felis) infestations on dogs. Eighteen (18) male and female beagle dogs were allocated to one of six treatment groups (n=3 dogs per group). Groups 1, 2 and 3 were untreated, negative controls and groups 4, 5 and 6 received 7. On Day −1, all dogs were infested with approximately 100 unfed, adult fleas (approximately 50% male and 50% female). On Day 0, dogs in groups 4, 5 and 6 were orally administered gelatin capsules containing 7, at a point dose of 20 mg/kg (50% technical active, 47% microcrystalline cellulose and 3% croscarmellose sodium, w/w). At eight (8) hours post-treatment, fleas were counted and removed from dogs in groups 1 and 4; at twelve (12) hours post-treatment, fleas were counted and removed from dogs in groups 2 and 5; and at twenty-four (24) hours post-treatment, fleas were counted and removed from dogs in groups 3 and 6. GM percent efficacy of treatments against fleas was calculated using the following formula: […]"}, "[3]": {"assay": "Tolerability of oral treatment in dogs", "type": "in vivo, dog", "protocol": "The therapeutic (knockdown) and residual efficacy of 5, administered orally at a point dose of 25 mg/kg bodyweight, was evaluated against adult American dog tick (D. variabilis) infestations on dogs. Six beagle dogs were allocated to one of two treatment groups, an untreated control group (n=4 dogs) or 5 group (n=2 dogs). On Day 0, two dogs were treated with 5 via oral gavage (25 mg/ml 5, dissolved in a solution of 55% polyethylene glycol-300, 35% propylene glycol and 10% water) at a point dose of approximately 25 mg/kg. Twenty-four (24) hours before treatment (Day −1), all dogs were infested with approximately 50 unfed, adult-stage American dog ticks (D. variabilis; approximately 50% male and 50% female). On Day 1, approximately 24 hours after treatment, thumb counts were conducted to determine the number and life-status classification of ticks present on all dogs (normal, moribund or dead; attached or detached). Ticks were not removed during thumb counts. On Day 2, approximately 48 hours after treatment, all ticks were classified and removed from dogs. Dogs were re-infested with approximately 50 unfed, adult D. variabilis ticks on Days 5 and 12, with tick classification, counts and removal on Days 7 and 14 (approximately 48 hours after each infestation).\nThe therapeutic (knockdown) and residual efficacy of 7 and 8, each administered orally at a point dose of 25 mg/kg bodyweight, was evaluated against adult tick (Dermacentor variabilis and Rhipicephalus sanguineus) and adult cat flea (Ctenocephalides felis) infestations on dogs. Twelve (12) male and female beagle dogs were randomly allocated to one of three treatment groups, four (4) dogs per group: Untreated control; 7, 25 mg/kg; and 8, 25 mg/kg. On Day −1, all dogs were infested with approximately 50 unfed, adult D. variabilis ticks. On Day 0, dogs were orally administered gelatin capsules containing either 7 or 8 (50% technical active, 47% microcrystalline cellulose and 3% croscarmellose sodium, w/w). Ticks were counted and classified, but not removed, on all dogs on Day 1, approximately 24 hours after treatment. On Day 2, approximately 48 hours after treatment, ticks were counted, classified and removed. Dogs were re-infested with the same number of D. variabilis ticks on Days 5, 12, 19 and 28 and tick counts were conducted on Days 7, 14, 21 and 30.\nThe therapeutic (knockdown) and residual efficacy of 7, administered orally at a point dose of 35 mg/kg bodyweight, was evaluated against adult tick (Dermacentor variabilis and Rhipicephalus sanguineus) and adult cat flea (Ctenocephalides felis) infestations on dogs. Twelve (12) male and female beagle dogs were allocated to either an untreated, negative control group or 7 group (n=6 dogs per group). Dogs were infested with approximately 50 unfed, adult D. variabilis ticks on Days −1, 5, 12, 19, 28, 35 and 42. On Day 0, dogs were orally administered gelatin capsules containing Compound 8194 (50% technical active, 47% microcrystalline cellulose and 3% croscarmellose sodium, w/w) at a point dose of 35 mg/kg. […] GM percent efficacy of treatments against both tick species and fleas was calculated using the following formula: […]\nThe therapeutic efficacy and speed of kill of 7, administered orally at a point dose of 20 mg/kg bodyweight, was evaluated against adult cat flea (Ctenocephalides felis) infestations on dogs. […]"}, "[4]": {"conditions": "Example 7, oral capsule 35 mg/kg"}}, "data": [{"smiles": "Cc1cc(C2=NOC(c3cc(Cl)c(Cl)c(Cl)c3)(C(F)(F)F)C2)ccc1C(=O)NCc1ccc2c(c1)B(O)OC2(C)C", "note": "(stereo not shown) [Compound 7, N-((1-Hydroxy-3,3-dimethyl-1,3-dihydrobenzo[c][1,2]oxaborol-6-yl)methyl)-2-methyl-4-(5-(3,4,5-trichlorophenyl)-5-(trifluoromethyl)-4,5-dihydroisoxazol-3-yl)benzamide]", "values": [{"measurement": "Residual efficacy", "setting": "[1]; [4]", "value": 98.7, "unit": "%"}, {"measurement": "Geometric mean group live parasite counts", "setting": "[1]; Table 2, oral capsule 25 mg/kg", "value": 4.8}, {"measurement": "% efficacy", "setting": "[2]; 8 hours post-treatment", "value": "(90.4) %"}, {"measurement": "Geometric mean group live flea counts", "setting": "[2]; 8 hours post-treatment", "value": 7.9}, {"measurement": "Geometric mean group live flea counts", "setting": "[2]; 12 hours post-treatment", "value": 0.0}, {"measurement": "% efficacy", "setting": "[2]; 24 hours post-treatment", "value": "(100) %"}, {"measurement": "Geometric mean group live flea counts", "setting": "[2]; 24 hours post-treatment", "value": 0.0}, {"measurement": "knockdown against an existing flea infestation", "setting": "[2]; eight (8) hours of treatment", "value": "rapid knockdown"}, {"measurement": "tolerability", "setting": "[3]; Example 6, oral capsule 25 mg/kg", "value": "well tolerated"}, {"measurement": "tolerability", "setting": "[3]; [4]", "value": "well tolerated"}]}]}
